This is an account of results in US20110245242A1, “Heterocyclically Substituted Anilinopyrimides” (Bayer CropScience AG, priority 2008, published 2011).

Common to all, as to assay type: physicochemical
The nature of series [1]: log P by HPLC on reversed-phase columns (C 18), method [a], acidic range pH 2.3. As to conditions: for log p: pH 2.3; for chromatographic logP: pH 2.3, log P (pH 2.3). On the procedure: The log P values were measured in accordance with EEC Directive 79/831 Annex V.A8 by HPLC (High Performance Liquid Chromatography) on reversed-phase columns (C 18) using the methods below: [a] The determination was carried out in the acidic range at pH 2.3 using the mobile phases 0.1% aqueous phosphoric acid and acetronitrile linear gradient from 10% acetonitrile to 95% acetronitrile.

A short description of series [2]: log P by LC-MS, method [b], acid range pH 2.7. The note with it: pH 2.7. The method, then: The log P values were measured in accordance with EEC Directive 79/831 Annex V.A8 by HPLC (High Performance Liquid Chromatography) on reversed-phase columns (C 18) using the methods below:
[b] The LC-MS determination in the acid range was carried out at pH 2.7 using the mobile phases 0.1% aqueous formic acid and acetonitrile (contains 0.1% formic acid)
linear gradient from 10% acetonitrile to 95% acetonitrile.

A further series can be described thus: physchem. The note with it: pH 7.8. The method, then:
The log P values were measured in accordance with EEC Directive 79/831 Annex V.A8 by HPLC (High Performance Liquid Chromatography) on reversed-phase columns (C 18) using the methods below: [c] The LC-MS determination in the neutral range was carried out at pH 7.8 using the mobile phases 0.001 molar aqueous ammonium bicarbonate solution and acetonitrile linear gradient from 10% acetonitrile to 95% acetonitrile.

SMILES strings stand for the structures.

In general, chromatographic logP refers to lipophilicity estimated from chromatographic retention. The low end stands for a more hydrophilic compound, the high end for a more lipophilic compound.

Regarding `COCC(C)Nc1nc(Nc2ccc(N3CCCC3=O)cc2)ncc1Cl` (centres unmarked) [Example 1], the log p in series [1] is 1.51[a];; in series [2] it was 1.51[b].
On the same counts, the results for `CC1CCC(=O)N1c1cccc(Nc2ncc(Cl)c(NC3CC3)n2)c1` (centres unmarked) [Example 30] are 1.6[a]; and 1.6[b].
Regarding `CSCC(C)(C)Nc1nc(Nc2ccc(N3CCOC3=O)cc2)ncc1Cl` [Example 40], in the series “physchem”, the log p is 3.09[c].
For the compound `CC1CC(=O)N(c2cccc(Nc3ncc(Br)c(NC4CC4)n3)c2)C1` (centres unmarked) [Example 99], the log p in series [2] was 1.85[b]; in “physchem”, 2.79[c];.
For the compound `COCC(C)Nc1nc(Nc2cccc(N3C(=O)OCC3C)c2)ncc1Cl` (centres unmarked) [Example 118], the log p is 1.6[a]; in series [1] and 1.6[b] in series [2].
In the same order, the values of `C[C@@H]1CCN(c2cccc(Nc3ncc(Cl)c(NC4CC4)n3)c2)C1=O` [Example 123] are 2.86[a]; and 2.86[b].
Regarding `C[C@H]1CCN(c2cccc(Nc3ncc(Cl)c(NC4CC4)n3)c2)C1=O` [Example 124], the log p in series [1] is 2.86[a];; in series [2] it was 2.86[b].
On the same counts, the results for `CC1CCC(=O)N1c1cccc(Nc2ncc(Cl)c(NC3CC3)n2)c1` (centres unmarked) [Example 125] are 2.59[a]; and 2.59[b].
In the same order, the values of `CC1CCC(=O)N1c1cccc(Nc2ncc(Cl)c(NC3CC3)n2)c1` (centres unmarked) [Example 126] are 2.59[a]; and 2.59[b].
For `CC(C)Nc1nc(Nc2cccc(N3CCC(C)C3=O)c2)ncc1Cl` (centres unmarked) [Example 185], the log p in series [2] was 1.82[b]; in the series “physchem”, 3.07[c];.
On the same counts, the results for `CC1CCN(c2cccc(Nc3ncc(Cl)c(N(C)C4CC4)n3)c2)C1=O` (centres unmarked) [Example 186] are 2.66[b] and 3.48[c];.
On the same counts, the results for `CC1CC(=O)N(c2cccc(Nc3ncc(Cl)c(NC4CCC4)n3)c2)C1=O` (centres unmarked) [Example 188] are 1.76[b] and 2.67[c];.
As to `CCOC(=O)[C@@H]1CCC(=O)N1c1cccc(Nc2ncc(Br)c(NC3CC3)n2)c1` [Example 191], in “physchem”, the log p is 2.65[c].
As to `CCOC(=O)[C@@H]1CCC(=O)N1c1cccc(Nc2ncc(C(F)(F)F)c(NC3CC3)n2)c1` [Example 193], the log p in series [2] was 2.56[b]; in the series “physchem”, 2.82[c];.
Turning to `CC(C)Nc1nc(Nc2ccc(F)c(N3CCCC3=O)c2)ncc1Cl` [Example 197], the log p in series [2] was 1.55[b]; in “physchem”, 2.55[c];.
In the same order, the values of `CNc1nc(Nc2ccc(F)c(N3CCCC3=O)c2)ncc1Cl` [Example 199] are 1.28[b] and 1.91[c];.
In the same order, the values of `CCNc1nc(Nc2cccc(N3CCCC3=O)c2)ncc1Cl` [Example 204] are 1.29[b] and 2.24[c];.
In the same order, the values of `CCN(C)c1nc(Nc2cccc(N3CCCC3=O)c2)ncc1Cl` [Example 207] are 1.79[b] and 2.91[c];.
Regarding `CCC1CC(C)C(=O)N1c1cccc(Nc2ncc(Br)c(NC3CC3)n2)c1` (centres unmarked) [Example 208], the results for the log p (in series [2]; in “physchem”) were 2.32[b] and 3.31[c];, respectively.
For `CCC1CC(C)C(=O)N1c1cccc(Nc2ncc(Br)c(NCC3CC3)n2)c1` (centres unmarked) [Example 209], the log p is 2.41[b] in series [2] and 3.69[c]; in “physchem”.
Consider `CCC1CC(C)C(=O)N1c1cccc(Nc2ncc(Br)c(NC(C)C)n2)c1` (centres unmarked) [Example 210], for which the log p in series [2] was 2.36[b]; in the series “physchem”, 3.7[c];.
In the same order, the values of `CCC1CC(C)C(=O)N1c1cccc(Nc2ncc(Cl)c(NCC3CC3)n2)c1` (centres unmarked) [Example 212] are 2.33[b] and 3.54[c];.
As to `CC1CC1Nc1nc(Nc2cccc(N3CCCCC3=O)c2)ncc1Cl` (centres unmarked) [Example 213], the log p in series [2] was 1.7[b]; in the series “physchem”, 2.48[c];.
On the same counts, the results for `CC1CC1Nc1nc(Nc2cccc(N3C(=O)OCC3C)c2)ncc1Cl` (centres unmarked) [Example 215] are 1.84[b] and 2.79[c];.
In the same order, the values of `CC1CC1Nc1nc(Nc2cccc(N3C(=O)OC[C@H]3C(C)C)c2)ncc1Cl` (some centres unmarked) [Example 216] are 2.43[b] and 3.46[c];.
On the same counts, the results for `O=C1CCCN1c1cccc(Nc2ncc(C(F)(F)F)c(NCC(F)(F)C(F)(F)F)n2)c1` [Example 218] are 3.1[b] and 3.07[c];.
As to `O=C1CCC(=O)N1Cc1cccc(Nc2ncc(Cl)c(NC3CC3)n2)c1` [Example 235], in “physchem”, the log p was 2.32[c];.
On to `CC1CC(Nc2nc(Nc3cccc(N4CCOC4=O)c3)ncc2Cl)C1` (centres unmarked) [Example 256], for which the log p in the series “physchem” was 2.99[c].
Turning to `CC1COC(=O)N1c1cccc(Nc2ncc(C(F)(F)F)c(NC3CC3)n2)c1` (centres unmarked) [Example 261], the log p in the series “physchem” was 2.7[c];.
The same measure, in the same setting: in the case of `CC(C)Nc1nc(Nc2cccc(N3C(=O)OCC3C)c2)ncc1Br` (centres unmarked) [Example 262] it was 2.83[c];; in that of `COc1ccc(Nc2ncc(Cl)c(NC3CC3)n2)cc1N1CCCC1=O` [Example 328], 2.18[c];.
In series [1], `FC(F)(F)Oc1ccc(Nc2ncc(Cl)c(NC3CC3)n2)cc1Br` [VII-3, 5-Chloro-N^2-[3-bromo-4-(trifluoromethoxy)phenyl]-N^4-cyclopropylpyrimidine-2,4-diamine] yielded a chromatographic logP of 3.99.
In turn, `Cc1ccc(Nc2ncc(Cl)c(NC3CC3)n2)cc1Br` [VII-4, 5-Chloro-N^2-[3-bromo-4-(methyl)phenyl]-N^4-cyclopropylpyrimidine-2,4-diamine] returned a chromatographic logP in series [1] of 2.91.
Consider `Clc1cnc(Nc2cccc(Br)c2)nc1NC1CC1` [VII-5, N^2-(3-Bromophenyl)-5-chloro-N^4-cyclopropylpyrimidine-2,4-diamine], for which the chromatographic logP in series [1] was found to be 2.91.
On the same count and under the same terms, then `Clc1ccc(Nc2ncc(Cl)c(NC3CC3)n2)cc1Br` [VII-6, N^2-(3-Bromo-4-chlorophenyl)-5-chloro-N^4-cyclopropylpyrimidine-2,4-diamine], with 3.55; and `FC(F)(F)c1cc(Br)cc(Nc2ncc(Cl)c(NC3CC3)n2)c1` [VII-7, N^2-[3-Bromo-5-(trifluoromethyl)phenyl]-5-chloro-N^4-cyclopropylpyrimidine-2,4-diamine], with 4.6; and `Clc1cnc(Nc2ccc(Br)cc2)nc1NC1CC1` [VII-8, N^2-(4-Bromophenyl)-5-chloro-N^4-cyclopropylpyrimidine-2,4-diamine], with 2.55.
Still for that read-out and setting: in the case of `Brc1ccc(Nc2ncc(Br)c(NCC3CC3)n2)cc1` [VII-9, 5-Bromo-N^2-(4-bromophenyl)-N^4-(cyclopropylmethyl)pyrimidine-2,4-diamine] it was 2.84; in that of `Brc1ccc(Nc2ncc(Br)c(NC3CCC3)n2)cc1` [VII-10, 5-Bromo-N^2-(4-bromophenyl)-N^4-cyclobutylpyrimidine-2,4-diamine], 3.18; in that of `Brc1ccc(Nc2ncc(Br)c(NC3CC3)n2)cc1` [VII-11, 5-Bromo-N^2-(4-bromophenyl)-N^4-cyclopropylpyrimidine-2,4-diamine], 2.7.
Still for that read-out and setting: in the case of `Clc1cnc(Nc2ccc(I)cc2)nc1NC1CCC1` [VII-12, 5-Chloro-N^4-cyclobutyl-N^2-(4-iodophenyl)pyrimidine-2,4-diamine] it was 3.49.
